The text below walks through data of patent publication US4234586A, “Nitrogen bridgehead compounds having anti-allergic effect” (Chinoin Gyogyszer es Vegyeszeti Termekek Gyara Rt., priority 1977, dated 1980).

The subject of assay [1] is rats. As to the kind of experiment: Church test (antiallergic effect, rats). The assay is classed as in vivo. To be noted: Rattus norvegicus, iv. The procedure: (§1) The PCA text [Ovary: J. Immun. 81, 355 (1958)] and the Church test [British J. Pharm. 46, 56-66 (1972); Immunology 29, 527-534 (1975)] were used. The tests were carried out on rats.
The test system of assay [2] is rats. Nature of the assay: PCA test (antiallergic effect, rats). The assay is classed as in vivo, rat. The conditions noted are these: for ED50 / inhibition in vivo at 320 µM, 320 µmol/kg: Rattus norvegicus; for inhibition in vivo at 320 µM, 320 µmol/kg: single dose of 320 μM/kg, route not given, read-out: PCA test, percentage of activity for a single dose of 320 μM/kg. Here is the method: as §1

A further assay deals with asthma. The conditions noted are these: desired effect only by inhalation (spinhaler); cited from earlier work.
Another assay has as its system Released Hist. As to the kind of experiment: Released Hist. in vitro. It counts as cell-based. To be noted: Rattus norvegicus. Here is the method:
as §1

[3] abbreviates: iv, rats, i.v., read-out: PCA test ED50 i.v.
Where [4] appears, read: po, rats, p.o., read-out: PCA test ED50 p.o.
Where [5] appears, read: iv, read-out: ED50 in the PCA test, further compounds.
Setting [6] is: iv, rats, i.v., second part of Table 1, read-out: PCA test ED50 i.v.

SMILES strings stand for the structures.

As a reminder, the ED50 is the dose at which the effect has come halfway, by size or by number of responders. Broadly, the EC50 is the concentration that produces a half-maximal response.

`CC1CCC(=NNc2ccccc2)c2ncc(C(=O)O)c(=O)n21` (single isomer, unassigned; (+)) [Example 37, (+)-9-(phenyl-hydrazono)-6-methyl-4-oxo-6,7,8,9-tetrahydro-4H-pyrido(1,2-a)pyrimidine-3-carboxylic acid]: the ED50 with rats [1] amounted to 0.14 µmol/kg; in the assay with rats [2] (setting [3]) it was 0.29 µmol/kg; with rats [2] (setting [4]) it was 1 µmol/kg.
On to `O=C(O)c1cc(=O)c2c(OCC(O)COc3cccc4oc(C(=O)O)cc(=O)c34)cccc2o1` [Disodium-chromoglycate, reference compound], for which the results for the ED50 in the assay on rats [1] and in the assay on rats [2] (setting [3]) were 0.84 µmol/kg and 1 µmol/kg, respectively. Moreover, the “activity by route of administration (in words)” value in the assay with rats [2] (oral vs intravenous) is reported as “effective only when administered intravenously”. For the same molecule, the “PCA test ED50 p.o. (result in words)” value in the assay with rats [2] (rats, p.o.) was “ineffective”. Further, in the assay on asthma, the “anti-asthmatic effect when administered orally” value is given as “ineffective when administered orally”.
Consider `CC1CCC(=NNc2ccccc2)c2ncc(C(=O)O)c(=O)n21` (centres unmarked) [Example 14, 9-(phenyl-hydrazono)-6-methyl-4-oxo-6,7,8,9-tetrahydro-4H-pyrido(1,2-a)pyrimidine-3-carboxylic acid], for which the ED50 with rats [1] is 0.31 µmol/kg; with rats [2] (setting [3]), 0.6 µmol/kg; with rats [2] (setting [4]) it was 1.2 µmol/kg.
With `CC1CCC(=NNc2ccc(Br)cc2)c2ncc(C(=O)O)c(=O)n21` (centres unmarked) [Example 16, 9-(p-bromo-phenyl-hydrazono)-6-methyl-4-oxo-6,7,8,9-tetrahydro-4H-pyrido(1,2-a)pyrimidine-3-carboxylic acid], in the assay on Released Hist. (third part of Table 1), the EC50 amounted to 2 µM. The inhibition in vivo at 320 µM, 320 µmol/kg in the assay on rats [2] (rats) came to 100%.
Turning to `CC1CCC(=NNc2ccccc2C(=O)O)c2ncc(C(=O)O)c(=O)n21` (centres unmarked) [Example 17, 9-(o-carboxy-phenyl-hydrazono)-6-methyl-4-oxo-6,7,8,9-tetrahydro-4H-pyrido(1,2-a)pyrimidine-3-carboxylic acid], the ED50 in the assay with rats [2] (setting [5]) was 0.48 µmol/kg.
Take `CC1CCC(=NNc2ccc(Cl)cc2)c2ncc(C(=O)O)c(=O)n21` (centres unmarked) [Example 18, 9-(p-chloro-phenyl-hydrazono)-6-methyl-4-oxo-6,7,8,9-tetrahydro-4H-pyrido(1,2-a)pyrimidine-3-carboxylic acid]: the EC50 in the assay on Released Hist. (second part of Table 1) is 100 µM. Moreover, the ED50 in the assay on rats [2] (setting [6]) and in the assay on rats [2] (setting [5]) was 0.53 µmol/kg in each case.
`CC1CCC(=NNc2cccnc2)c2ncc(C(=O)O)c(=O)n21` (centres unmarked) [Example 23, 6-methyl-9-(3-pyridyl-hydrazono)-4-oxo-6,7,8,9-tetrahydro-4H-pyrido(1,2-a)pyrimidine-3-carboxylic acid]: the EC50 with Released Hist. (second part of Table 1) is 120 µM. Besides, the ED50 in the assay with rats [2] (setting [6]) was 0.53 µmol/kg; with rats [2] (setting [5]), 0.54 µmol/kg.
With `CC1CCC(=NN)c2ncc(C(=O)O)c(=O)n21` (centres unmarked) [Example 26, 9-hydrazono-6-methyl-4-oxo-6,7,8,9-tetrahydro-4H-pyrido(1,2-a)pyrimidine-3-carboxylic acid], the EC50 in the assay with Released Hist. (third part of Table 1) was 90 µM. In the assay on rats [2] (rats), the inhibition in vivo at 320 µM, 320 µmol/kg stood at 89%.
Regarding `CCOc1ccc(NN=C2CCC(C)n3c2ncc(C(=O)O)c3=O)cc1` (centres unmarked) [Example 35, 9-(p-ethoxy-phenyl-hydrazono)-6-methyl-4-oxo-6,7,8,9-tetrahydro-4H-pyrido(1,2-a)pyrimidine-3-carboxylic acid], in the assay with Released Hist. (third part of Table 1), the EC50 amounted to 17.6 µM. The ED50 in the assay on rats [2] (setting [5]) was 1 µmol/kg. Besides, in the assay on rats [2] (rats), the inhibition in vivo at 320 µM, 320 µmol/kg is 100%.
Consider `CC1CCC(=NNc2ccc(Cl)c(Cl)c2)c2ncc(C(=O)O)c(=O)n21` (centres unmarked) [Example 41, 9-(3,4-dichloro-phenyl-hydrazono)-6-methyl-4-oxo-6,7,8,9-tetrahydro-4H-pyrido-(1,2-a)pyrimidine-3-carboxylic acid], for which the EC50 in the assay with Released Hist. (third part of Table 1) came to 100 µM. Besides, the inhibition in vivo at 320 µM, 320 µmol/kg with rats [2] (rats) stood at 100%.
On to `CC1CCC(=NNc2cccc([N+](=O)[O-])c2)c2ncc(C(=O)O)c(=O)n21` (centres unmarked) [Example 43, 9-(3-nitro-phenyl)-hydrazono-6-methyl-4-oxo-6,7,8,9-tetrahydro-4H-pyrido(1,2-a)pyrimidine-3-carboxylic acid], for which the EC50 with Released Hist. (third part of Table 1) came out at 100 µM. The inhibition in vivo at 320 µM, 320 µmol/kg with rats [2] (rats) is 100%.
Regarding `CC1CCC(=NNc2cccc(Cl)c2)c2ncc(C(=O)O)c(=O)n21` (centres unmarked) [Example 45, 9-(3-chloro-phenyl-hydrazono)-6-methyl-4-oxo-6,7,8,9-tetrahydro-4H-pyrido(1,2-a)pyrimidine-3-carboxylic acid], in the assay with Released Hist. (third part of Table 1), the EC50 was found to be 312 µM. Further, the inhibition in vivo at 320 µM, 320 µmol/kg with rats [2] (rats) was determined as 100%.
In the case of `CC1CCC(=NNc2ccc(C(=O)O)cc2)c2ncc(C(=O)O)c(=O)n21` (centres unmarked) [Example 48, 9-(4-carboxy-phenyl-hydrazono)-6-methyl-4-oxo-6,7,8,9-tetrahydro-4H-pyrido(1,2-a)pyrimidine-3-carboxylic acid], in the assay on Released Hist. (third part of Table 1), the EC50 worked out at 100 µM. In addition, the inhibition in vivo at 320 µM, 320 µmol/kg in the assay with rats [2] (rats) was 100%.
`Cc1cccc(NN=C2CCC(C)n3c2ncc(C(=O)O)c3=O)c1` (centres unmarked) [Example 50, 9-(3-methyl-phenyl-hydrazono)-6-methyl-4-oxo-6,7,8,9-tetrahydro-4H-pyrido(1,2-a)pyrimidine-3-carboxylic acid]: the EC50 with Released Hist. (third part of Table 1) amounted to 73 µM. The inhibition in vivo at 320 µM, 320 µmol/kg in the assay with rats [2] (rats) came out at 100%.
